The text below walks through data of paper PMC8449414, “Rational design of ASCT2 inhibitors using an integrated experimental-computational approach” (Proceedings of the National Academy of Sciences of the …, 2021).

Format in all cases: cell-based
Assay [1] has as its target T1, rASCT2 (Rattus norvegicus, UniProt D3ZJ25).
T1 construct: expressed in transfected cells; host or cells: HEK293 (ATCC CRL-11268), transient transfection
T1 sequence (D3ZJ25 1-555): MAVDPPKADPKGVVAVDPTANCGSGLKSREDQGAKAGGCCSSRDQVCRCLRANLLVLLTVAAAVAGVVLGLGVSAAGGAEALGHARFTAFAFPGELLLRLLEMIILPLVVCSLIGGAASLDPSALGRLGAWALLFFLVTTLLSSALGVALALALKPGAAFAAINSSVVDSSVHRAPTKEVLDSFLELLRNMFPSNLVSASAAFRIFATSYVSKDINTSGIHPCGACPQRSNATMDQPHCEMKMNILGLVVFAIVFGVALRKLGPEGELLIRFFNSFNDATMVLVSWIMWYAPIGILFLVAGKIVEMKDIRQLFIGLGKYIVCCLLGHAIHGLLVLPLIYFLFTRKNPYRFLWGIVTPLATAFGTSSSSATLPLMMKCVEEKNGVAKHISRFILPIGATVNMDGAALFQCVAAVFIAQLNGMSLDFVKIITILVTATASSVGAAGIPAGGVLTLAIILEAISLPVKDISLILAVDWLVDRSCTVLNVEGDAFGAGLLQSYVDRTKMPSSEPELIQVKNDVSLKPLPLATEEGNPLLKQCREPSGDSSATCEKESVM
Description: Electrophysiology: inhibition of leak anion current in transfected HEK293 cells. The settings on record: for Km: substrate dose response of anion current, rat ASCT2-expressing HEK293 cells, read-out: apparent Km; for inhibition of the leak anion current (in words): concentration range tested up to 200 µM, Ki could not be obtained. The method, then:
(§1) Cell culture and transfection
(§2) Human embryonic kidney 293 (HEK293, ATCC CRL -11268) cells were cultured in DMEM media supplemented with 10% (v/v) fetal bovine serum (FBS), 2 mM glutamine, 1% penicillin streptomycin solution, 1 mM sodium pyruvate and non -essential amino acids. Cells were maintained at 370C in a fully humidified atmosphere containing 5% CO2. rASCT2, hASCT2, hASCT1, EAAT1, EAAT2, EAAT3, EAAT5 and YFP complementary DNAs were each used to transiently transfect HEK293 using POLYPLUS Jet-prime transfection reagent. Cells were analyzed using electrophysiological techniques 24-40 hours after transfection.
(§3) Electrophysiological techniques
(§4) Electrophysiological experiments were performed as described previously 1,2. Stock solutions of inhibitor was prepared in dimethyl sulfoxide (DMSO) up to 100 mM.
(§5) Dilutions to working concentrations were made using external buffer. The highest

In assay [2] the target is T1, rASCT2. Put plainly: Inhibitor dissociation kinetics by ligand displacement with alanine (rapid solution exchange). The settings on record: 5 mM alanine rapidly applied, no inhibitor (control), 0 mV. The procedure: Fig. 2. […] (A) Electrophysiological recordings obtained after application of alanine (red trace) and increasing concentrations of Lc-BPE (black traces). The times of application of alanine or Lc-BPE are shown by a gray bar (top). (B and C) Lc-BPE inhibitor dose–response relationships for rASCT2 and hASCT2, respectively. […] Currents were normalized to the current recorded after application of 10 µM inhibitor concentration. (D) Inhibition of glutamine uptake (5 µM external concentration) in the presence of varying concentration of Lc-BPE and 5 µM glutamine measured in proteoliposomes reconstituted with purified hASCT2. […] Errors bars represent SEM from at least two biologically independent measurements. (E) Current recorded after rapid solution exchange from extracellular buffer (control, gray bar, black trace) to a solution containing buffer + 5 mM alanine (white bar). For the red trace, the cell was preincubated with 10 µM Lc-BPE (red bar, red trace) followed by rapid application of 5 mM alanine. All current recordings were performed at 0 mV in the presence of 130 mM NaSCN internal and 140 mM NaCl external (homoexchange) solutions. […]
To test this, we measured the dissociation kinetics of Lc-BPE using a ligand displacement approach. First, rASCT2-expressing cells were preincubated with a saturating solution of Lc-BPE (10 µM), and subsequently the inhibitor was displaced using a supersaturating concentration of the substrate L-alanine (5 mM) (Fig. 2 E and F).

Assay [3] concerns the target T2, hASCT2 (Homo sapiens, UniProt Q15758).
T2 construct: expressed in transfected cells; host or cells: HEK293 (ATCC CRL-11268), transient transfection
T2 sequence (Q15758 1-541): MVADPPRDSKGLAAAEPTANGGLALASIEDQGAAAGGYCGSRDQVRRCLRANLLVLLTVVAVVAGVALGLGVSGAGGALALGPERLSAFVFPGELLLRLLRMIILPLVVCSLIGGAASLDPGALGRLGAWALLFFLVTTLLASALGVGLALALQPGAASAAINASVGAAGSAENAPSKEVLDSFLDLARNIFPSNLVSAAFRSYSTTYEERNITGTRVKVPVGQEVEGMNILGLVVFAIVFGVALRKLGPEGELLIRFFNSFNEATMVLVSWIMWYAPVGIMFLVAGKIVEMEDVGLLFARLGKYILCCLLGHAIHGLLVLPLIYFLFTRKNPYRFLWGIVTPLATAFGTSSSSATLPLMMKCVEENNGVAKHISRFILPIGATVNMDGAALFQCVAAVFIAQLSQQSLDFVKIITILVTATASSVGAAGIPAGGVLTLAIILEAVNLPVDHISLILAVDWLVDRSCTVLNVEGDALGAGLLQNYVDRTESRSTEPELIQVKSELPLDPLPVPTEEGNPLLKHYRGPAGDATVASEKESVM
Description: Electrophysiology: inhibition of leak anion current in transfected HEK293 cells. The settings on record: HEK293 cells, 0 mV, 130 mM NaSCN internal, 140 mM NaCl external; No current = no inhibition of anion leak current up to highest concentration tested (§ 20-50, || 100-400, # 1500-2500 µM); read-out: Binding affinity Ki (apparent Ki). The procedure: as §1, §2, §3, §4, §5

As to `NC(=O)CC[C@H](N)C(=O)O` [glutamine, L-glutamine, reference compound], in assay [1] (0 mV), the Km was determined as 233 ± 41 µM. With `C[C@H](N)C(=O)O` [alanine, L-alanine, reference compound], the “rate constant of the current rise” value is 24.6 ± 5.2 s⁻¹ in assay [2] and 24 s⁻¹ in assay [2] (listed as Alanine). In assay [1] (0 mV), the Michaelis-Menten constant (Km) worked out at 318 ± 17 µM.

Turning to `O=C(O[C@H]1CN[C@@H](C(=O)O)C1)c1ccc(-c2ccccc2)cc1` [Dc-BPE], in assay [1], the “inhibition of the leak anion current (in words)” value is “too small at high compound concentrations”. Consider `O=C(O[C@@H]1CN[C@@H](C(=O)O)C1)c1ccc(-c2ccccc2)cc1` [Dt-BPE], for which, in assay [1], the “inhibition of the leak anion current (in words)” value is reported as “unspecific”. Take `O=C(O[C@H]1CN[C@H](C(=O)O)C1)c1ccc(-c2ccccc2)cc1` [Lt-BPE]: the Ki in assay [3] was found to be 205 ± 27 µM; in assay [1] (HEK293 cells, 0 mV, 130 mM NaSCN internal, 140 mM NaCl external, No current = no inhibition of anion leak current up to highest concentration tested (§ 20-50, || 100-400, # 1500-2500 µM), read-out: Binding affinity Ki (apparent Ki)), 232 ± 44 µM.

The term Km denotes the concentration of substrate that gives half-maximal velocity.
